According to PMC6480460, “Derivatives of the β-Crinane Amaryllidaceae Alkaloid Haemanthamine as Multi-Target Directed Ligands for Alzheimer’s Disease” (Molecules, 2019):

biological target: hAChE (Homo sapiens, UniProt P22303); assay: biochemical; assay type: biochemical; settings: mean ± SEM of three independent measurements, each in triplicate
Description: (§1) The hAChE and hBuChE activities were determined using a modified method of Ellman with acetylthiocholine iodide (ATChI) and butyrylthiocholine iodide (BuTChI) as substrates, respectively.

hAChE, sequence (P22303 32-614): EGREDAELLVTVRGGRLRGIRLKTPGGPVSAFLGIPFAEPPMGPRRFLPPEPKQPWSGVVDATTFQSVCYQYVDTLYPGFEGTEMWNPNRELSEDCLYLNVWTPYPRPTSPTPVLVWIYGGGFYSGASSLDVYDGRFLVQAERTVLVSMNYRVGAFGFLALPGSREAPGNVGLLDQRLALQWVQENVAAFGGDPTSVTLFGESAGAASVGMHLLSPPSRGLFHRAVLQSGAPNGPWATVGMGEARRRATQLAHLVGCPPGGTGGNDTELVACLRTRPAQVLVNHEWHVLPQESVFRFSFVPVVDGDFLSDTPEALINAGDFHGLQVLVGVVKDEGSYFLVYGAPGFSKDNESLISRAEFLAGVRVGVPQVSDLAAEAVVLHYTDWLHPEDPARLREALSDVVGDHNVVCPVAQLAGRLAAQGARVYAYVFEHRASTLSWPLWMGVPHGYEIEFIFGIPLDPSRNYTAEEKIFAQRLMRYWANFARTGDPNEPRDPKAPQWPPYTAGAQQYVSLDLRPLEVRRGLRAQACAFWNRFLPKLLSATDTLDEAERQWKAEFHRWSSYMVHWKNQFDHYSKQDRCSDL

Compound | IC50 [µM]
CCC(=O)OC1CN2Cc3cc4c(cc3C13C=CC(OC)CC23)OCO4 (stereo not shown) [Compound 1b, 11-O-Propionylhaemanthamine] | > 500
COC1C=CC23c4cc5c(cc4CN(CC2OC(C)=O)C3C1)OCO5 (stereo not shown) [Compound 1a, 11-O-Acetylhaemanthamine] | > 500
CCCCC(=O)OC1CN2Cc3cc4c(cc3C13C=CC(OC)CC23)OCO4 (stereo not shown) [Compound 1d, 11-O-Pentanoylhaemanthamine] | > 500

same assay, conditions: selectivity index, ratio hBuChE IC50/hAChE IC50

Compound | SI for hAChE
CCC(=O)OC1CN2Cc3cc4c(cc3C13C=CC(OC)CC23)OCO4 (stereo not shown) [Compound 1b, 11-O-Propionylhaemanthamine] | < 0.9

biological target: hBuChE (Homo sapiens, UniProt P06276); assay: biochemical; assay type: biochemical; settings: mean ± SEM of three independent measurements, each in triplicate; read-out: hBuChE IC50
Sequence (P06276 29-602): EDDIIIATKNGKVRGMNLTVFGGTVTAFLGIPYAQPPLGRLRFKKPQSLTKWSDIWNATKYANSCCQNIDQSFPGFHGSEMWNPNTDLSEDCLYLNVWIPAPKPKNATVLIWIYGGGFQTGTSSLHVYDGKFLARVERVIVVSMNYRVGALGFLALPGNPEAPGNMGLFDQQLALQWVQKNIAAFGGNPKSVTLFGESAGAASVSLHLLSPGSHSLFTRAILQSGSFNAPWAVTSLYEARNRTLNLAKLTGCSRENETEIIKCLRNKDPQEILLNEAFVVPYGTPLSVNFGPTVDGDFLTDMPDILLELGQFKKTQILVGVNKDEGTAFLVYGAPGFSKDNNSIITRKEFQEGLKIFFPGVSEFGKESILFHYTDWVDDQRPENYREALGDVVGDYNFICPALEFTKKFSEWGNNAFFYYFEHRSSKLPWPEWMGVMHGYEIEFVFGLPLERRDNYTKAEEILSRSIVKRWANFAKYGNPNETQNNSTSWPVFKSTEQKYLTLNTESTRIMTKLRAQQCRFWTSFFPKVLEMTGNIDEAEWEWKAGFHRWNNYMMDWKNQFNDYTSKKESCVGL
Description: as §1

Compound | IC50 [µM]
CCC(=O)OC1CN2Cc3cc4c(cc3C13C=CC(OC)CC23)OCO4 (stereo not shown) [Compound 1b, 11-O-Propionylhaemanthamine] | 437 ± 38
COC1C=CC23c4cc5c(cc4CN(CC2OC(C)=O)C3C1)OCO5 (stereo not shown) [Compound 1a, 11-O-Acetylhaemanthamine] | > 500
CCCCC(=O)OC1CN2Cc3cc4c(cc3C13C=CC(OC)CC23)OCO4 (stereo not shown) [Compound 1d, 11-O-Pentanoylhaemanthamine] | > 500

system: Jurkat (acute T cell leukemia); assay: WST-1 cytotoxicity assay, Jurkat; assay type: cell-based; settings: Homo sapiens, c = 10 μM, 48 h, percent of proliferation of untreated control cells
From the text: (§2) Selected human tumor and non-tumor cell lines {Jurkat (acute T cell leukemia), MOLT-4 (acute lymphoblastic leukemia), A549 (lung carcinoma), HT-29 (colorectal adenocarcinoma), PANC-1 (pancreas epithelioid carcinoma), A2780 (ovarian carcinoma), HeLa (cervix adenocarcinoma), MCF-7 (breast adenocarcinoma), SAOS-2 (osteosarcoma) and MRC-5 (normal lung fibroblasts)} were purchased from either ATCC (Manassas, VA, USA) or Sigma-Aldrich (St. Louis, MO, USA) and cultured according to the provider’s culture method guidelines. […] Cells in the maximum range of either 10 passages for primary cell line (MRC-5), or in the maximum range of 20 passages for cancer cell lines (Jurkat, MOLT-4, A549, HT-29, PANC-1, A2780, HeLa, MCF-7 and SAOS-2) and in an exponential growth phase were used for this study.
(§3) The WST-1 (Roche, Mannheim, Germany) reagent was used to determine the cytostatic effect of the test compounds. WST-1 is designed for the spectrophotometric quantification of cell proliferation, growth, viability and chemosensitivity in cell populations using a 96-well-plate format (Sigma, St. Louis, MO, USA). The principle of WST-1 is based on photometric detection of the reduction of tetrazolium salt to a colored formazan product. The cells were seeded at a previously established optimal density (30,000 Jurkat, 25,000 MOLT-4, 500 A549, 1500 HT-29, 2000 PANC-1, 5000 A2780, 500 HeLa, 1500 MCF-7, 2000 SAOS-2 and 2000 MRC-5 cells/well) in 100 µL of culture medium, and adherent cells were allowed to reattach overnight. Thereafter, the cells were treated with 100 µL of either corresponding alkaloids or doxorubicin stock solutions to obtain the desired concentrations and incubated in 5% CO2 at 37 °C. WST-1 reagent diluted 4-fold with PBS (50 µL) was added 48 h after treatment. Absorbance was measured after 3 h incubation with WST-1 at 440 nm. The measurements were performed in a Tecan Infinite M200 spectrometer (Tecan Group, Männedorf, Switzerland). All experiments were performed at least three times with triplicate measurements at each drug concentration per experiment. The viability was quantified as described previously according to the following formula: (%) viability = (Asample − Ablank)/(Acontrol − Ablank) × 100, where A is the absorbance of the employed WST-1 formazan measured at 440 nm. The viability of the treated cells was normalized to the viability of cells treated with 0.1% DMSO (Sigma-Aldrich) as a vehicle control.

Compound | activity at 10 µM [%]
CCC(=O)OC1CN2Cc3cc4c(cc3C13C=CC(OC)CC23)OCO4 (stereo not shown) [Compound 1b, 11-O-Propionylhaemanthamine] | 104 ± 3
COC1C=CC23c4cc5c(cc4CN(CC2OC(C)=O)C3C1)OCO5 (stereo not shown) [Compound 1a, 11-O-Acetylhaemanthamine] | 100 ± 13
CCCCC(=O)OC1CN2Cc3cc4c(cc3C13C=CC(OC)CC23)OCO4 (stereo not shown) [Compound 1d, 11-O-Pentanoylhaemanthamine] | 92 ± 1

system: MOLT-4 (acute lymphoblastic leukemia); assay: WST-1 cytotoxicity assay, MOLT-4; assay type: cell-based; settings: Homo sapiens, c = 10 μM, 48 h, percent of proliferation of untreated control cells, read-out: Cell proliferation, MOLT-4
From the text: as §2, §3

Compound | viability at 10 µM [%]
CCC(=O)OC1CN2Cc3cc4c(cc3C13C=CC(OC)CC23)OCO4 (stereo not shown) [Compound 1b, 11-O-Propionylhaemanthamine] | 97 ± 8
COC1C=CC23c4cc5c(cc4CN(CC2OC(C)=O)C3C1)OCO5 (stereo not shown) [Compound 1a, 11-O-Acetylhaemanthamine] | 106 ± 9
CCCCC(=O)OC1CN2Cc3cc4c(cc3C13C=CC(OC)CC23)OCO4 (stereo not shown) [Compound 1d, 11-O-Pentanoylhaemanthamine] | 96 ± 1

system: A549 (lung carcinoma); assay: WST-1 cytotoxicity assay, A549; assay type: cell-based; settings: Homo sapiens, c = 10 μM, 48 h, percent of proliferation of untreated control cells, read-out: Cell proliferation, A549
From the text: as §2, §3

Compound | activity at 10 µM [%]
CCC(=O)OC1CN2Cc3cc4c(cc3C13C=CC(OC)CC23)OCO4 (stereo not shown) [Compound 1b, 11-O-Propionylhaemanthamine] | 84 ± 3
COC1C=CC23c4cc5c(cc4CN(CC2OC(C)=O)C3C1)OCO5 (stereo not shown) [Compound 1a, 11-O-Acetylhaemanthamine] | 95 ± 9
CCCCC(=O)OC1CN2Cc3cc4c(cc3C13C=CC(OC)CC23)OCO4 (stereo not shown) [Compound 1d, 11-O-Pentanoylhaemanthamine] | 99 ± 7

system: HT-29 (colorectal adenocarcinoma); assay: WST-1 cytotoxicity assay, HT-29; assay type: cell-based; settings: Homo sapiens, c = 10 μM, 48 h, percent of proliferation of untreated control cells, read-out: Cell proliferation, HT-29
From the text: as §2, §3

Compound | activity at 10 µM [%]
CCC(=O)OC1CN2Cc3cc4c(cc3C13C=CC(OC)CC23)OCO4 (stereo not shown) [Compound 1b, 11-O-Propionylhaemanthamine] | 79 ± 15
COC1C=CC23c4cc5c(cc4CN(CC2OC(C)=O)C3C1)OCO5 (stereo not shown) [Compound 1a, 11-O-Acetylhaemanthamine] | 97 ± 10
CCCCC(=O)OC1CN2Cc3cc4c(cc3C13C=CC(OC)CC23)OCO4 (stereo not shown) [Compound 1d, 11-O-Pentanoylhaemanthamine] | 94 ± 4

system: PANC-1 (pancreas epithelioid carcinoma); assay: WST-1 cytotoxicity assay, PANC-1; assay type: cell-based; settings: Homo sapiens, c = 10 μM, 48 h, percent of proliferation of untreated control cells, read-out: Cell proliferation, PANC-1
From the text: as §2, §3

Compound | activity at 10 µM [%]
CCC(=O)OC1CN2Cc3cc4c(cc3C13C=CC(OC)CC23)OCO4 (stereo not shown) [Compound 1b, 11-O-Propionylhaemanthamine] | 70 ± 13
COC1C=CC23c4cc5c(cc4CN(CC2OC(C)=O)C3C1)OCO5 (stereo not shown) [Compound 1a, 11-O-Acetylhaemanthamine] | 114 ± 4
CCCCC(=O)OC1CN2Cc3cc4c(cc3C13C=CC(OC)CC23)OCO4 (stereo not shown) [Compound 1d, 11-O-Pentanoylhaemanthamine] | 88 ± 3

system: A2780 (ovarian carcinoma); assay: WST-1 cytotoxicity assay, A2780; assay type: cell-based; settings: Homo sapiens, c = 10 μM, 48 h, percent of proliferation of untreated control cells, read-out: Cell proliferation, A2780
From the text: as §2, §3

Compound | activity at 10 µM [%]
CCC(=O)OC1CN2Cc3cc4c(cc3C13C=CC(OC)CC23)OCO4 (stereo not shown) [Compound 1b, 11-O-Propionylhaemanthamine] | 104 ± 3
COC1C=CC23c4cc5c(cc4CN(CC2OC(C)=O)C3C1)OCO5 (stereo not shown) [Compound 1a, 11-O-Acetylhaemanthamine] | 107 ± 17
CCCCC(=O)OC1CN2Cc3cc4c(cc3C13C=CC(OC)CC23)OCO4 (stereo not shown) [Compound 1d, 11-O-Pentanoylhaemanthamine] | 99 ± 2

system: HeLa (cervix adenocarcinoma); assay: WST-1 cytotoxicity assay, HeLa; assay type: cell-based; settings: Homo sapiens, c = 10 μM, 48 h, percent of proliferation of untreated control cells, read-out: Cell proliferation, HeLa
From the text: as §2, §3

Compound | activity at 10 µM [%]
CCC(=O)OC1CN2Cc3cc4c(cc3C13C=CC(OC)CC23)OCO4 (stereo not shown) [Compound 1b, 11-O-Propionylhaemanthamine] | 69 ± 11
COC1C=CC23c4cc5c(cc4CN(CC2OC(C)=O)C3C1)OCO5 (stereo not shown) [Compound 1a, 11-O-Acetylhaemanthamine] | 83 ± 6
CCCCC(=O)OC1CN2Cc3cc4c(cc3C13C=CC(OC)CC23)OCO4 (stereo not shown) [Compound 1d, 11-O-Pentanoylhaemanthamine] | 93 ± 6

system: MCF-7 (breast adenocarcinoma); assay: WST-1 cytotoxicity assay, MCF-7; assay type: cell-based; settings: Homo sapiens, MCF7; c = 10 μM, 48 h, percent of proliferation of untreated control cells; read-out: Cell proliferation, MCF-7
From the text: as §2, §3

Compound | activity at 10 µM [%]
CCC(=O)OC1CN2Cc3cc4c(cc3C13C=CC(OC)CC23)OCO4 (stereo not shown) [Compound 1b, 11-O-Propionylhaemanthamine] | 85 ± 7
COC1C=CC23c4cc5c(cc4CN(CC2OC(C)=O)C3C1)OCO5 (stereo not shown) [Compound 1a, 11-O-Acetylhaemanthamine] | 97 ± 19
CCCCC(=O)OC1CN2Cc3cc4c(cc3C13C=CC(OC)CC23)OCO4 (stereo not shown) [Compound 1d, 11-O-Pentanoylhaemanthamine] | 93 ± 5

system: SAOS-2 (osteosarcoma); assay: WST-1 cytotoxicity assay, SAOS-2; assay type: cell-based; settings: Homo sapiens, c = 10 μM, 48 h, percent of proliferation of untreated control cells, read-out: Cell proliferation, SAOS-2
From the text: as §2, §3

Compound | activity at 10 µM [%]
CCC(=O)OC1CN2Cc3cc4c(cc3C13C=CC(OC)CC23)OCO4 (stereo not shown) [Compound 1b, 11-O-Propionylhaemanthamine] | 96 ± 16
COC1C=CC23c4cc5c(cc4CN(CC2OC(C)=O)C3C1)OCO5 (stereo not shown) [Compound 1a, 11-O-Acetylhaemanthamine] | 88 ± 6
CCCCC(=O)OC1CN2Cc3cc4c(cc3C13C=CC(OC)CC23)OCO4 (stereo not shown) [Compound 1d, 11-O-Pentanoylhaemanthamine] | 88 ± 6

system: MRC-5 (normal lung fibroblasts); assay: WST-1 cytotoxicity assay, MRC-5; assay type: cell-based; settings: Homo sapiens, MRC5; c = 10 μM, 48 h, percent of proliferation of untreated control cells; read-out: Cell proliferation, MRC-5
From the text: as §2, §3

Compound | activity at 10 µM [%]
CCC(=O)OC1CN2Cc3cc4c(cc3C13C=CC(OC)CC23)OCO4 (stereo not shown) [Compound 1b, 11-O-Propionylhaemanthamine] | 102 ± 13
COC1C=CC23c4cc5c(cc4CN(CC2OC(C)=O)C3C1)OCO5 (stereo not shown) [Compound 1a, 11-O-Acetylhaemanthamine] | 113 ± 12
CCCCC(=O)OC1CN2Cc3cc4c(cc3C13C=CC(OC)CC23)OCO4 (stereo not shown) [Compound 1d, 11-O-Pentanoylhaemanthamine] | 89 ± 3
